How the values were obtained:
[1] = PK evaluation in CD-1 mouse; assay type: in vivo
Procedure: (§1) For example, Compound 1 bis-hydrogen sulfate monohydrate was evaluated in CD-1 mouse, Wistar rat, Cyno monkey, and Beagle dog. Cross species allometric scaling of CL (drug clearance) and Vss (volume at steady state) predicts low CL, high Vss and long T112 for Compound 1 in humans.

[2] = PK evaluation in Wistar rat; assay type: in vivo
Procedure: as §1

[3] = PK evaluation in Cyno monkey; assay type: in vivo
Procedure: as §1

[4] = PK evaluation in Beagle dog; assay type: in vivo
Procedure: as §1

[5] = Storage at 25° C./93% RH for 1 week, re-analysis by XRPD/HPLC; assay type: physicochemical; conditions: for stability on storage at 25° C./93% RH: 1 week
[6] = Gravimetric vapour sorption (GVS); assay type: physicochemical
Procedure: Sorption isotherms were obtained using a Hiden IGASorp moisture sorption analyser, controlled by CFRSorp software. The sample temperature was maintained at 25° C. by a Huber re-circulating water bath. The humidity was controlled by mixing streams of dry and wet nitrogen, with a total flow rate of 250 ml/min. The relative humidity (RH) was measured by a calibrated Vaisala RH probe (dynamic range of 0-95% RH), located near the sample. The weight change, (mass relaxation) of the sample as a function of % RH was constantly monitored by the microbalance (accuracy ±0.001 mg). Typically 10-20 mg of sample was placed in a tared mesh stainless steel basket under ambient conditions. The sample was loaded and unloaded at 40% RH and 25° C. (typical room conditions). A moisture sorption isotherm was performed as outlined below (2 scans giving 1 complete cycle). The standard isotherm was performed at 25° C. at 10% RH intervals over a 0-90% RH range.
The software uses a least squares minimisation procedure together with a model of the mass relaxation, to predict an asymptotic value. The measured mass relaxation value must be within 5% of that predicted by the software, before the next % RH value is selected. The minimum equilibration time was set to 1 hour and the maximum to 4 hours. The sample was recovered after completion of the isotherm and re-analysed by XRPD.

[7] = Thermodynamic aqueous solubility; assay type: physicochemical
[8] = Storage at 40° C./75% RH (elevated humidity) for 1 week, re-analysis by XRPD/HPLC
Procedure: The crystalline solids were filtered, dried at ambient conditions, and stored at 40° C./75% RH for 1 week and analyzed by ^1H NMR/IC.
Samples from the screen using amorphous free base Compound 1 were analysed by ^1H-NMR and DSC, and re-analysis by XRPD was also carried out after drying at 50° C./vacuum and storage at 40° C./75% RH (the same sample was dried and stored at elevated humidity).

[9] = Polymorphism study: maturation (temperature cycling RT to 50° C.) in solvents, XRPD; assay type: physicochemical; conditions: three days; listed as hydrate Form 1 of free base Compound 1
Procedure: One of 21 solvents was added to each vial in a number of aliquots (up to 30 volumes), with shaking. All the samples were then placed under maturation between RT to 50° C. (4 hours at each temperature) for 3 days. After maturation the samples were analysed by XRPD. Clear solutions were cooled to −20° C. (freezer). If no precipitation occurred samples were evaporated at RT.
Samples were placed under maturation between RT-50° C. (4 hours cycle) for 3 days. After maturation the samples were analyzed by XRPD. Clear solutions were then cooled to −20° C. (freezer). If no precipitation occurred, samples were evaporated at RT.
The corresponding solvents and solvent mixtures were added in portions of (a total of) 5, 10, 20, and 30 volumes at 50° C., with shaking, aiming for clear solutions. After each addition, the vials were allowed to shake for 20 minutes, after which observations were made. Solutions were allowed to evaporate, whereas slurries were set for 8 hour temperature cycling maturation, between RT and 50° C., for 5 days.
The oils obtained by solvent evaporation were used for the maturation screen. Anhydrous solvents (5 volumes; 100 μL) were used in order to minimise the amount of water present. Any solutions were allowed to slowly evaporate, whereas slurries were set for 8 hour temperature cycling maturation, between RT and 50° C. […] These were matured for a further 24 hours before performing XRPD analysis.
The selected solvents and solvent mixtures (5 to 20 volumes) were added with stirring. Any solutions were allowed to slowly evaporate, whereas slurries were set for 8 hour temperature cycling maturation, between RT and 50° C., for 2 days.
Crystals were ground in order to analyse them by XRPD. Suspensions were set for temperature cycling for a total of five days after which time XRPD analysis was carried out.

For `COc1cc(-c2cccc3cc([C@H](C)Nc4nc(N)ncc4C#N)n(-c4ccccc4)c(=O)c23)ccn1.O.O=S(=O)(O)O.O=S(=O)(O)O`, the AUClast ([1]; IV, 5 mg/kg) was 1012 ng·h/mL, the Cl ([1]; IV, 5 mg/kg) was 82 mL/min/kg and the Cmax ([1]; IV, 5 mg/kg) was 1417 ng/mL. It also gave a T1/2 ([1]; IV, 5 mg/kg) of 0.6 h, a Vss ([1]; IV, 5 mg/kg) of 2.3 L/kg and an AUClast ([1]; PO, 10 mg/kg) of 856 ng·h/mL. The Cmax ([1]; PO, 10 mg/kg) was 647 ng/mL, the Foral ([1]; PO, 10 mg/kg) was 45% and the T1/2 ([1]; PO, 10 mg/kg) was 1.7 h. For the same compound, the Tmax ([1]; PO, 10 mg/kg) was 0.25 h, the AUClast ([2]; IV, 2 mg/kg) was 2061 ng·h/mL and the Cl ([2]; IV, 2 mg/kg) was 17 mL/min/kg. The Cmax ([2]; IV, 2 mg/kg) was 799 ng/mL, the T1/2 ([2]; IV, 2 mg/kg) was 2.3 h and the Vss ([2]; IV, 2 mg/kg) was 2.4 L/kg. The AUClast ([2]; PO, 10 mg/kg) was 5968 ng·h/mL, the Cmax ([2]; PO, 10 mg/kg) was 787 ng/mL and the Foral ([2]; PO, 10 mg/kg) was 58%. The T1/2 ([2]; PO, 10 mg/kg) was 3.3 h, the Tmax ([2]; PO, 10 mg/kg) was 1.3 h and the AUClast ([3]; IV, 1 mg/kg) was 2534 ng·h/mL. For the same compound, the Cl ([3]; IV, 1 mg/kg) was 6.5 mL/min/kg, the Cmax ([3]; IV, 1 mg/kg) was 581 ng/mL and the T1/2 ([3]; IV, 1 mg/kg) was 4.1 h. The Vss ([3]; IV, 1 mg/kg) was 1.6 L/kg, the AUClast ([3]; PO, 5 mg/kg) was 12790 ng·h/mL and the Cmax ([3]; PO, 5 mg/kg) was 2365 ng/mL. The Foral ([3]; PO, 5 mg/kg) was 100%, the T1/2 ([3]; PO, 5 mg/kg) was 4.0 h and the Tmax ([3]; PO, 5 mg/kg) was 2 h. It also gave an AUClast ([4]; IV, 1 mg/kg) of 4746 ng·h/mL, a Cl ([4]; IV, 1 mg/kg) of 2.5 mL/min/kg and a Cmax ([4]; IV, 1 mg/kg) of 424 ng/mL. For the same compound, the T1/2 ([4]; IV, 1 mg/kg) was 14.6 h, the Vss ([4]; IV, 1 mg/kg) was 2.9 L/kg and the AUClast ([4]; PO, 5 mg/kg) was 17626 ng·h/mL. For the same compound, the Cmax ([4]; PO, 5 mg/kg) was 1830 ng/mL, the Foral ([4]; PO, 5 mg/kg) was 74% and the T1/2 ([4]; PO, 5 mg/kg) was 8.0 h. It also gave a Tmax ([4]; PO, 5 mg/kg) of 2.3 h.

For `COc1cc(-c2cccc3cc([C@H](C)Nc4nc(N)ncc4C#N)n(-c4ccccc4)c(=O)c23)ccn1`, the “Storage 25° C./93% RH for 1 week: HPLC Purity” value ([5]; salts scaled-up at 0.5 gram) was “HPLC Purity: Unchanged”, the “Storage 25° C./93% RH for 1 week: XRPD (D8)” value ([5]; salts scaled-up at 0.5 gram) was “XRPD (D8): Unchanged” and the “XRPD post GVS (C2)” value [6] was “Unchanged”. For the same compound, the “GVS Single cycle” value ([6]; hygroscopicity in words, 25° C., listed as 1-2-Ethanedisulfonic acid) was “Moderately hygroscopic”, the “XRPD (C2) post Aqueous solubility” value ([7]; residual solid) was “Low cryst. 1,2-ethanedisulfonic” and the “Thermodynamic aqueous solubility” value ([7]; salts scaled-up at 0.5 gram, listed as 1-2-Ethanedisulfonic acid) was 6200 µg/mL. The “Storage 40° C./75% RH for 1 week: HPLC Purity” value ([8]; salts scaled-up at 0.5 gram) was “HPLC Purity: Unchanged” and the “Storage 40° C./75% RH for 1 week: XRPD (D8)” value ([8]; salts scaled-up at 0.5 gram) was “XRPD (D8): Unchanged”.

With `CC(=O)O.COc1cc(-c2cccc3cc([C@H](C)Nc4nc(N)ncc4C#N)n(-c4ccccc4)c(=O)c23)ccn1.COc1cc(-c2cccc3cc([C@H](C)Nc4nc(N)ncc4C#N)n(-c4ccccc4)c(=O)c23)ccn1` [Batch 2 of Form 6] the “Stability at 25° C./93% RH” value ([5]; after 1 week, XRPD) was “Very slight changes” and the “Stability at 40° C./75% RH” value ([8]; after 1 week, XRPD) was “Very slight changes”.

In the case of `COc1cc(-c2cccc3cc([C@H](C)Nc4nc(N)ncc4C#N)n(-c4ccccc4)c(=O)c23)ccn1` [Form 1 of the free base of Compound 1], the “stability on storage at 25° C./93% RH” value [5] is reported as “converts to Form 3 of the free base of Compound 1”, the “stability on storage at 25° C./93% RH” value ([5]; listed as Free base Form 1) is reported as “conversion to Form 3” and the “Stability at 25° C./93% RH” value ([5]; form) is reported as “Conversion to Form 3 (FIG. 31)”. The “GVS: moisture on loading” value [6] was 0.7 % w/w, the “GVS behaviour (hydration / desolvation)” value ([6]; listed as Free base Form 1) was “hydrates to a higher hydrate above 80% RH” and the “GVS: uptake between 80-90% RH” value ([6]; with hysteresis on desorption) was 4.0 % w/w. The Thermodynamic aqueous solubility ([7]; at pH 6.85) was 4 µg/mL, the “XRPD form after maturation in acetic acid: water 1:1” value [9] was “Form 6” and the “Stability at 40° C./75% RH” value ([8]; 1 week, form) was “No changes in form after 1 week”.

Source: patent US20160024051A1, “SALTS AND SOLID FORMS OF ISOQUINOLINONES AND COMPOSITION COMPRISING AND METHODS OF USING THE SAME” (INFINITY PHARMACEUTICALS, INC., priority 2013, published 2016)
